From the kinase profiling compilation of Christmann-Franck et al. (2016)
Values joined by “and” are separate entries in the source; they are usually repeats but may differ in a detail not shown here. Identical values can stand only once.

Tests used:
Assay in all cases: radiometric filter-binding kinase assay, Kinase HotSpot
Conditions in all cases: compound 0.5 µM; ATP 10 µM
ALK (human) = ALK (human) (UniProt Q9UM73)
NEK1 (human) = NEK1 (human) (UniProt Q96PY6)
PRKD3 (human) = PRKD3 (human) (UniProt O94806)
CDC42BPA (human) = CDC42BPA (human) (UniProt Q5VT25)
LRRK2 (human) = LRRK2 (human) (UniProt Q5S007)
Chain of LRRK2 (human) (Q5S007 whole entry, looked up): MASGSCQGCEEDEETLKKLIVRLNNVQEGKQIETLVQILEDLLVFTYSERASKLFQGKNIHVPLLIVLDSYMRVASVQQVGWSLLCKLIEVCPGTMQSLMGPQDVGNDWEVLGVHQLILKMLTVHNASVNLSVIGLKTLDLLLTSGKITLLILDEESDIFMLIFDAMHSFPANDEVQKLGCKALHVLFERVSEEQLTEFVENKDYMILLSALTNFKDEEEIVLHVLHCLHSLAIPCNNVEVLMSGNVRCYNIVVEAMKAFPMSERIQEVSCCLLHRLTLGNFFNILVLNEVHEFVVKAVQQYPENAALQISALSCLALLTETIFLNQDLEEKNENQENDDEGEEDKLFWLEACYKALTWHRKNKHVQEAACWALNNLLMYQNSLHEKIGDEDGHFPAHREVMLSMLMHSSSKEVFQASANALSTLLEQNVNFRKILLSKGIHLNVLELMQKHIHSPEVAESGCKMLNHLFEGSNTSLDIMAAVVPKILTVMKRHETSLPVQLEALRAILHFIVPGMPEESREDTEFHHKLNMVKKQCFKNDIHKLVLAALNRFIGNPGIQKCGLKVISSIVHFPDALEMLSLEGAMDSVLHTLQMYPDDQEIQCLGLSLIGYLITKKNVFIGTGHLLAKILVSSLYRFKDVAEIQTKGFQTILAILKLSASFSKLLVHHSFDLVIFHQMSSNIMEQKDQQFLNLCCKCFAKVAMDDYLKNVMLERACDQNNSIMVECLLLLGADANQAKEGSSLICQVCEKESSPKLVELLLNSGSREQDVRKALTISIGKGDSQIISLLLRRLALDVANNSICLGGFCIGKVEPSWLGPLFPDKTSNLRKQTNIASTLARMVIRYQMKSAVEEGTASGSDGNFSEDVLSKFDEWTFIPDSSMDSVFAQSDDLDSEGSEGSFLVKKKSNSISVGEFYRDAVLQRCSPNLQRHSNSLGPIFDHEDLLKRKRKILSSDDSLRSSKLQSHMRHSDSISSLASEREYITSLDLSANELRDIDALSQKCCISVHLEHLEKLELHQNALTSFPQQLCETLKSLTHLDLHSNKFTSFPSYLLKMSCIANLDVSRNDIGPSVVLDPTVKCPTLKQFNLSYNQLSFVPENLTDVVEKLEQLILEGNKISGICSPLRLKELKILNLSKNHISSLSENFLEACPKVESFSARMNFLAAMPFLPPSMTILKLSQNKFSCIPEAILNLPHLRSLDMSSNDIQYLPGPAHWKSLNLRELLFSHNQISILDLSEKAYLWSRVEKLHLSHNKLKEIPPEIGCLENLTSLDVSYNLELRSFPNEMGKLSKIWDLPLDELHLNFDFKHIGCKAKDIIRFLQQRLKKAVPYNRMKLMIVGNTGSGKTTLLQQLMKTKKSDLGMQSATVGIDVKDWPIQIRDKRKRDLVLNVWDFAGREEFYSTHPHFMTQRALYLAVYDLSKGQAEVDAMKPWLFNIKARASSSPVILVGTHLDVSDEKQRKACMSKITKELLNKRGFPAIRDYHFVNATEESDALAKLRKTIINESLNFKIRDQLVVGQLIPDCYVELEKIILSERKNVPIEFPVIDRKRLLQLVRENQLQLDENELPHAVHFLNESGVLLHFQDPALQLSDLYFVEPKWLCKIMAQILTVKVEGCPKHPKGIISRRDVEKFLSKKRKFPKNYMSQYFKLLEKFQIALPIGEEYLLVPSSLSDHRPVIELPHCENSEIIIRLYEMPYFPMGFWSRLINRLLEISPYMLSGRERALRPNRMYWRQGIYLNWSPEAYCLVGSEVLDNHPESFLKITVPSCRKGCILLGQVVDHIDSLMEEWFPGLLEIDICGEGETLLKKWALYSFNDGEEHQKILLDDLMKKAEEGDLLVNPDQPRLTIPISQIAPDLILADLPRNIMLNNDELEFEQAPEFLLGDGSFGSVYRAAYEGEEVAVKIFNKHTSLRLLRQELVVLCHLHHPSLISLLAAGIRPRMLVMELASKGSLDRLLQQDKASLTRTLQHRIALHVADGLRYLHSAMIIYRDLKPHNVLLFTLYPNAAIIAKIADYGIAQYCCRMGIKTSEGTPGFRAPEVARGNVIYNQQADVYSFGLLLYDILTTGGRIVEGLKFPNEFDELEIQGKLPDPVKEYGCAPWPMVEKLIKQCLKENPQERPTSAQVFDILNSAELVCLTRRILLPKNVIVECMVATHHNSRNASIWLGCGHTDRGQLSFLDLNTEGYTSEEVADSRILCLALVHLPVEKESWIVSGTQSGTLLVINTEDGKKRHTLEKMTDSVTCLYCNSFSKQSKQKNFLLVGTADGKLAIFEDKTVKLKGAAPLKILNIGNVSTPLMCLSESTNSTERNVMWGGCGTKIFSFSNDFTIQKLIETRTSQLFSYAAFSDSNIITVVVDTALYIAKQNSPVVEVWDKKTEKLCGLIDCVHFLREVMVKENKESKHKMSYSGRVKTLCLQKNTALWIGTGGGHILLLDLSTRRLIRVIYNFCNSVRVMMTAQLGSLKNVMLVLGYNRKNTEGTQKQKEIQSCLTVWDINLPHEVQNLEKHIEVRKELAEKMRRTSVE

DYRK1A (human) = DYRK1A (human) (UniProt Q13627)
PDGFRA (human) = PDGFRA (human) (UniProt P16234)
Chain of PDGFRA (human) (P16234 whole entry, looked up): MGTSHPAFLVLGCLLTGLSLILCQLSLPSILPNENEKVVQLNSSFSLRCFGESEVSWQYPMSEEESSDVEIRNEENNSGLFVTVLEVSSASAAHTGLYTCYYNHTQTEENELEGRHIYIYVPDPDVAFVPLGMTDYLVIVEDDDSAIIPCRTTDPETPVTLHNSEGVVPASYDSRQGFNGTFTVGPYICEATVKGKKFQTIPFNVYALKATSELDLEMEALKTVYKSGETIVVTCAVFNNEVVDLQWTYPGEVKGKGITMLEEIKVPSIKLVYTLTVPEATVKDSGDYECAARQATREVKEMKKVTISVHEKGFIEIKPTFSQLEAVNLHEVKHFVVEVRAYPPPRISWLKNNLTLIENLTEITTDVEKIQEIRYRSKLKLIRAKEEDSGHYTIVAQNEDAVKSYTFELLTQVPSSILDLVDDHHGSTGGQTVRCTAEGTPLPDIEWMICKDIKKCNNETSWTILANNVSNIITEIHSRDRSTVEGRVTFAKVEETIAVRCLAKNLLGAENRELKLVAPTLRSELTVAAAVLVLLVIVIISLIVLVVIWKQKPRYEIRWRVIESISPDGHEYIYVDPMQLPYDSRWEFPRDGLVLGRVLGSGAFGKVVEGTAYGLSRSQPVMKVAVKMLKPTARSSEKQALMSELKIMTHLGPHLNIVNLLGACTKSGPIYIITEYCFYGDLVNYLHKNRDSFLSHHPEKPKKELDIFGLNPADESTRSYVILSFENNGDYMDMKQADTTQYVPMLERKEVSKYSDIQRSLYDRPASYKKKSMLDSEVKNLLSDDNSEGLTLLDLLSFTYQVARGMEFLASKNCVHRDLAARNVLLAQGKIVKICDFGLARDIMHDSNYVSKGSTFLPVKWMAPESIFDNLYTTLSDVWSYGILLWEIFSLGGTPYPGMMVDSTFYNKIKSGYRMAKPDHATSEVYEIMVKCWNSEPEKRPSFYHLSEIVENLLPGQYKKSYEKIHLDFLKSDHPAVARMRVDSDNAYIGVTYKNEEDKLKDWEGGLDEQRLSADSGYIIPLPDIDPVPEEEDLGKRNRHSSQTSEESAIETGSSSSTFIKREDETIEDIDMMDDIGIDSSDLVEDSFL

RPS6KA5 KD2 (human) = RPS6KA5 KD2 (human) (UniProt O75582)
BRSK1 (human) = BRSK1 (human) (UniProt Q8TDC3)
PKN1 (human) = PKN1 (human) (UniProt Q16512)
STK3 (human) = STK3 (human) (UniProt Q13188)
FYN (human) = FYN (human) (UniProt P06241)
NTRK1 (human) = NTRK1 (human) (UniProt P04629)
Chain of NTRK1 (human) (P04629 whole entry, looked up): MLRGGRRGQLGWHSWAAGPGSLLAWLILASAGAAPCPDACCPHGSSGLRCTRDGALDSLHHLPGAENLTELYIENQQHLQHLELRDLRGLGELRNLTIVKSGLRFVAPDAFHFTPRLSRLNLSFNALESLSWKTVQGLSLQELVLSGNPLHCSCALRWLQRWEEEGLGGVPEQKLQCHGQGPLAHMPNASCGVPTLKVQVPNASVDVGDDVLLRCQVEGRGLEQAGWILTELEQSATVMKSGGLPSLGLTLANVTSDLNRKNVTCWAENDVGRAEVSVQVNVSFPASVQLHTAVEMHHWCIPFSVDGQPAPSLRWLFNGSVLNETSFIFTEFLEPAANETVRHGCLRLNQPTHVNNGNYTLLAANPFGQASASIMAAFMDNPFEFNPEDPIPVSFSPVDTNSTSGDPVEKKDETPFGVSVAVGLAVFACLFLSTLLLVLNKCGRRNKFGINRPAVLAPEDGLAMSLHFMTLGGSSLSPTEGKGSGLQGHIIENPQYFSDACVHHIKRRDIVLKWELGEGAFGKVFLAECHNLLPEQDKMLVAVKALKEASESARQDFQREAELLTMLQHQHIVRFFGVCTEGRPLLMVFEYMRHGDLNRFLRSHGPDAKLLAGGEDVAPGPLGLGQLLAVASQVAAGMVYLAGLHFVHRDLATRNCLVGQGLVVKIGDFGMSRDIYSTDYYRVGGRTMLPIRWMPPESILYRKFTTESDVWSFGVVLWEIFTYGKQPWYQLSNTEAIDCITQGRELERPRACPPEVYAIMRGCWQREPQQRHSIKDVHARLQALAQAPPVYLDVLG

EPHB2 (human) = EPHB2 (human) (UniProt P29323)
AKT1 (human) = AKT1 (human) (UniProt P31749)
CDK6 CCND3 (human) = CDK6 CCND3 (human) (UniProt P30281+Q00534)
DDR2 (human) = DDR2 (human) (UniProt Q16832)
ACVRL1 (human) = ACVRL1 (human) (UniProt P37023)
BLK (human) = BLK (human) (UniProt P51451)
EPHA1 (human) = EPHA1 (human) (UniProt P21709)
PIM1 (human) = PIM1 (human) (UniProt P11309)
CSNK1A1 (human) = CSNK1A1 (human) (UniProt P48729)
GSK3B (human) = GSK3B (human) (UniProt P49841)
MAP3K10 (human) = MAP3K10 (human) (UniProt Q02779)
BRSK2 (human) = BRSK2 (human) (UniProt Q8IWQ3)
MAP4K4 (human) = MAP4K4 (human) (UniProt O95819)
PASK (human) = PASK (human) (UniProt Q96RG2)
MAP3K11 (human) = MAP3K11 (human) (UniProt Q16584)
FGFR4 (human) = FGFR4 (human) (UniProt P22455)
PDPK1 (human) = PDPK1 (human) (UniProt O15530)
PRKG2 (human) = PRKG2 (human) (UniProt Q13237)
WNK3 (human) = WNK3 (human) (UniProt Q9BYP7)
MARK4 (human) = MARK4 (human) (UniProt Q96L34)
MAP2K2 (human) = MAP2K2 (human) (UniProt P36507)
LYN (human) = LYN (human) (UniProt P07948)
Chain of LYN (human) (P07948 whole entry, looked up): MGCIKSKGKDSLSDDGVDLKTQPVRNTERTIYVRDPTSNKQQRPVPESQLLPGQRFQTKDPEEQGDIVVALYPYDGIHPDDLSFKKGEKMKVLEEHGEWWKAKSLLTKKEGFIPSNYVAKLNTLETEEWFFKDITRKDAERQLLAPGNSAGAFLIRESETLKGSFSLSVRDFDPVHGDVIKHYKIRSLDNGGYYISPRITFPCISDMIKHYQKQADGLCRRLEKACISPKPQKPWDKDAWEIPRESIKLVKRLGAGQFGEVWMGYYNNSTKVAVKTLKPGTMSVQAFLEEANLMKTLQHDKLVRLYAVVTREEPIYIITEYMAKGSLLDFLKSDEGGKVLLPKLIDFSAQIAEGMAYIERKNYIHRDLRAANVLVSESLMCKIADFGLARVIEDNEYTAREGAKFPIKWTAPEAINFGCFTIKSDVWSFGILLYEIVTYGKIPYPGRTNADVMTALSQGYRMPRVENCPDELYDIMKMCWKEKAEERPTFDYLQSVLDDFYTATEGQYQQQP

IRAK1 (human) = IRAK1 (human) (UniProt P51617)
CDK3 CCNE1 (human) = CDK3 CCNE1 (human) (UniProt Q00526+P24864)
LTK (human) = LTK (human) (UniProt P29376)
MAPK14 (human) = MAPK14 (human) (UniProt Q16539)
RPS6KB1 (human) = RPS6KB1 (human) (UniProt P23443)
EPHB3 (human) = EPHB3 (human) (UniProt P54753)
MAPKAPK5 (human) = MAPKAPK5 (human) (UniProt Q8IW41)

Q: For `CC(C)c1nn(-c2c(Cl)cccc2Cl)c2nc(Cc3ccc(OCCO)cc3)nc(O)c12`, which residual activity (ALK (human)) is on record?
A: 103%

Q: And the residual activity (NEK1 (human))?
A: 90.9%

Q: What about the residual activity (PRKD3 (human)) of the same compound?
A: 92.3%

Q: What about the residual activity (CDC42BPA (human)) of the same compound?
A: 89.5%

Q: What about the residual activity (LRRK2 (human)) of the same compound?
A: 109%

Q: What about the residual activity (DYRK1A (human)) of the same compound?
A: 105%

Q: And the residual activity (PDGFRA (human))?
A: 91.6%

Q: What about the residual activity (RPS6KA5 KD2 (human)) of the same compound?
A: 85.6%

Q: And the residual activity (BRSK1 (human))?
A: 91.3%

Q: What about the residual activity (PKN1 (human)) of the same compound?
A: 97%

Q: What about the residual activity (STK3 (human)) of the same compound?
A: 93.5%

Q: And the residual activity (FYN (human))?
A: 102%

Q: And the residual activity (NTRK1 (human))?
A: 89%

Q: What about the residual activity (EPHB2 (human)) of the same compound?
A: 92.5%

Q: And the residual activity (AKT1 (human))?
A: 94.7%

Q: And the residual activity (CDK6 CCND3 (human))?
A: 46.6%

Q: What about the residual activity (DDR2 (human)) of the same compound?
A: 96.3%

Q: And the residual activity (ACVRL1 (human))?
A: 103%

Q: What about the residual activity (BLK (human)) of the same compound?
A: 98.8%

Q: And the residual activity (EPHA1 (human))?
A: 95%

Q: What about the residual activity (PIM1 (human)) of the same compound?
A: 99%

Q: What about the residual activity (CSNK1A1 (human)) of the same compound?
A: 99%

Q: And the residual activity (GSK3B (human))?
A: 47.1%

Q: And the residual activity (MAP3K10 (human))?
A: 90.3%

Q: What about the residual activity (BRSK2 (human)) of the same compound?
A: 98.3%

Q: And the residual activity (MAP4K4 (human))?
A: 84.5%

Q: And the residual activity (PASK (human))?
A: 95.7%

Q: And the residual activity (MAP3K11 (human))?
A: 101%

Q: What about the residual activity (FGFR4 (human)) of the same compound?
A: 91.5%

Q: And the residual activity (PDPK1 (human))?
A: 94.9%

Q: What about the residual activity (PRKG2 (human)) of the same compound?
A: 61.6%

Q: What about the residual activity (WNK3 (human)) of the same compound?
A: 96.7%

Q: And the residual activity (MARK4 (human))?
A: 99.5%

Q: What about the residual activity (MAP2K2 (human)) of the same compound?
A: 98.5%

Q: What about the residual activity (LYN (human)) of the same compound?
A: 102% and 92.7%

Q: And the residual activity (IRAK1 (human))?
A: 99.2%

Q: And the residual activity (CDK3 CCNE1 (human))?
A: 6.14%

Q: And the residual activity (LTK (human))?
A: 87.4%

Q: And the residual activity (MAPK14 (human))?
A: 96.8%

Q: What about the residual activity (RPS6KB1 (human)) of the same compound?
A: 94.8%

Q: What about the residual activity (EPHB3 (human)) of the same compound?
A: 92.6%

Q: For `O=C1NC(=O)/C(=C\c2ccc3nccnc3c2)S1`, which residual activity (ALK (human)) is on record?
A: 93.3%

Q: What about the residual activity (NEK1 (human)) of the same compound?
A: 73.6%

Q: And the residual activity (PRKD3 (human))?
A: 94.7%

Q: What about the residual activity (CDC42BPA (human)) of the same compound?
A: 93.1%

Q: And the residual activity (LRRK2 (human))?
A: 96%

Q: And the residual activity (DYRK1A (human))?
A: 21.8%

Q: And the residual activity (PDGFRA (human))?
A: 106%

Q: What about the residual activity (RPS6KA5 KD2 (human)) of the same compound?
A: 87.8%

Q: And the residual activity (BRSK1 (human))?
A: 92.4%

Q: What about the residual activity (PKN1 (human)) of the same compound?
A: 101%

Q: What about the residual activity (STK3 (human)) of the same compound?
A: 104%

Q: What about the residual activity (FYN (human)) of the same compound?
A: 95.3%

Q: What about the residual activity (NTRK1 (human)) of the same compound?
A: 94.2%

Q: What about the residual activity (EPHB2 (human)) of the same compound?
A: 94.7%

Q: What about the residual activity (AKT1 (human)) of the same compound?
A: 98.3%

Q: And the residual activity (CDK6 CCND3 (human))?
A: 95.8%

Q: And the residual activity (DDR2 (human))?
A: 93.4%

Q: What about the residual activity (ACVRL1 (human)) of the same compound?
A: 107%

Q: What about the residual activity (BLK (human)) of the same compound?
A: 99.4%

Q: What about the residual activity (EPHA1 (human)) of the same compound?
A: 91.8%

Q: What about the residual activity (PIM1 (human)) of the same compound?
A: 61.7%

Q: And the residual activity (CSNK1A1 (human))?
A: 89.2%

Q: And the residual activity (GSK3B (human))?
A: 93.4%

Q: What about the residual activity (MAP3K10 (human)) of the same compound?
A: 94.2%

Q: What about the residual activity (BRSK2 (human)) of the same compound?
A: 90.9%

Q: And the residual activity (MAP4K4 (human))?
A: 80.9%

Q: What about the residual activity (PASK (human)) of the same compound?
A: 87.7%

Q: And the residual activity (MAP3K11 (human))?
A: 97.5%

Q: What about the residual activity (FGFR4 (human)) of the same compound?
A: 98%

Q: What about the residual activity (PDPK1 (human)) of the same compound?
A: 104%

Q: What about the residual activity (PRKG2 (human)) of the same compound?
A: 106%

Q: What about the residual activity (WNK3 (human)) of the same compound?
A: 85.8%

Q: And the residual activity (MARK4 (human))?
A: 89.9%

Q: What about the residual activity (MAP2K2 (human)) of the same compound?
A: 93.5%

Q: And the residual activity (LYN (human))?
A: 99.2% and 99.6%

Q: What about the residual activity (IRAK1 (human)) of the same compound?
A: 85.5%

Q: And the residual activity (CDK3 CCNE1 (human))?
A: 91.7%

Q: What about the residual activity (LTK (human)) of the same compound?
A: 94.7%

Q: And the residual activity (MAPK14 (human))?
A: 92.9%

Q: And the residual activity (RPS6KB1 (human))?
A: 91.2%

Q: What about the residual activity (EPHB3 (human)) of the same compound?
A: 94.5%

Q: Which residual activity (ALK (human)) does the source give for `CC(C)[C@H](CO)Nc1nc(Nc2cc(N)cc(Cl)c2)c2ncn(C(C)C)c2n1` here?
A: 79.6%

Q: And the residual activity (NEK1 (human))?
A: 81.5%

Q: What about the residual activity (PRKD3 (human)) of the same compound?
A: 89.2%

Q: And the residual activity (CDC42BPA (human))?
A: 99.4%

Q: And the residual activity (LRRK2 (human))?
A: 101%

Q: And the residual activity (DYRK1A (human))?
A: 57.1%

Q: And the residual activity (PDGFRA (human))?
A: 89.4%

Q: What about the residual activity (RPS6KA5 KD2 (human)) of the same compound?
A: 103%

Q: And the residual activity (BRSK1 (human))?
A: 93.1%

Q: And the residual activity (PKN1 (human))?
A: 93.3%

Q: And the residual activity (STK3 (human))?
A: 70%

Q: What about the residual activity (FYN (human)) of the same compound?
A: 18.9%

Q: What about the residual activity (NTRK1 (human)) of the same compound?
A: 45.4%

Q: And the residual activity (EPHB2 (human))?
A: 73.6%

Q: And the residual activity (AKT1 (human))?
A: 117%

Q: What about the residual activity (DDR2 (human)) of the same compound?
A: 128%

Q: What about the residual activity (ACVRL1 (human)) of the same compound?
A: 109%

Q: And the residual activity (BLK (human))?
A: 79.6%

Q: And the residual activity (EPHA1 (human))?
A: 76.9%

Q: And the residual activity (PIM1 (human))?
A: 98%

Q: And the residual activity (CSNK1A1 (human))?
A: 75.5%

Q: What about the residual activity (GSK3B (human)) of the same compound?
A: 103%

Q: And the residual activity (MAP3K10 (human))?
A: 95.1%

Q: And the residual activity (BRSK2 (human))?
A: 88.2%

Q: What about the residual activity (MAP4K4 (human)) of the same compound?
A: 86.1%

Q: What about the residual activity (PASK (human)) of the same compound?
A: 106%

Q: And the residual activity (MAP3K11 (human))?
A: 17.7%

Q: What about the residual activity (FGFR4 (human)) of the same compound?
A: 93.4%

Q: What about the residual activity (PDPK1 (human)) of the same compound?
A: 106%

Q: What about the residual activity (PRKG2 (human)) of the same compound?
A: 88.8%

Q: And the residual activity (WNK3 (human))?
A: 76.9%

Q: What about the residual activity (MARK4 (human)) of the same compound?
A: 71.2%

Q: What about the residual activity (MAP2K2 (human)) of the same compound?
A: 87.5%

Q: What about the residual activity (IRAK1 (human)) of the same compound?
A: 97.1%

Q: And the residual activity (CDK3 CCNE1 (human))?
A: 31.9%

Q: What about the residual activity (LTK (human)) of the same compound?
A: 103%

Q: And the residual activity (MAPKAPK5 (human))?
A: 95.8%

Q: What about the residual activity (MAPK14 (human)) of the same compound?
A: 98.9%

Q: What about the residual activity (RPS6KB1 (human)) of the same compound?
A: 95.5%

Q: What about the residual activity (EPHB3 (human)) of the same compound?
A: 95.3%
